According to US10563272B2, “Compositions comprising Metarhizium fungi and use thereof as a pesticide” (Cotton Research and Development Corporation, priority 2015, dated 2020):

Experiments:
[1] = system: green vegetable bugs (GVB); assay: Rate trial on conventional cotton refuge crops, Undabri 2012 (Example 12): green vegetable bugs; type: in vivo, Nezara viridula; conditions: 14 DAT (P<0.01) and 21 DAT (P<0.05); DAT 511 500 mL/ha and 1 L/ha, fipronil
Procedure: (§1) This trial was conducted using commercial conventional cotton refuge crops at Undabri in Goondiwindi (28° 55'S, 150° 31′E) from 14 Feb. to 6 Mar. 2012.
(§2) The efficacy of the following treatments against green mirids, green vegetable bugs and predatory insects was assessed: • 1. 250 mL/ha DAT 511 spore in oil (1×10^7 spores/ml); • 2. 500 mL/ha DAT 511 spore in oil (1×10^7 spores/ml); • 3. 1 L/ha DAT 511 spore in oil (1×10^7 spores/ml); • 4. 62.5 mL/ha fipronil; and • 5. Unsprayed (negative control).
(§3) The plots were arranged in a randomized complete block design with three replicates per treatment. Each replicated plot measured 8 m (8 rows) wide and 250 m long.
(§4) Foliar applications of each treatment were made on 14 Feb. 2012 using a ground spray rig fitted with flat fan nozzles to achieve a droplet size of 200 μm. All insecticide formulations were water miscible. All treatments were applied using a spray volume of 100 L/ha. The untreated (negative control) plot was left unsprayed and the plot treated with synthetic insecticide received two applications similar to, and on the same date as, the plots treated with the fungus.
(§5) For each replicate, visual counts of adults and nymphs of green mirids, green vegetable bugs (GVB), apple dimpling bugs and predatory insects on whole cotton plants were made in a randomly selected 1 m length of row of cotton plants (i.e. 6 m per treatment). […]

predatory beetles = assay: Rate trial on conventional cotton refuge crops, Undabri 2012 (Example 12): predatory beetles; type: in vivo, Coleoptera (Coccinellidae, Melyridae); conditions: DAT 511 250 mL/ha, 500 mL/ha and 1.0 L/ha; fipronil 62.5 mL/ha
Procedure: as §1, §2, §3, §4, §5

spiders = assay: Rate trial on conventional cotton, Norwood 2012 (Example 10): spiders; type: in vivo, Lycosa spp., Oxyopes spp., Salticidae spp., Araneus spp.; conditions: P>0.05
Procedure: This trial was conducted on commercial conventional cotton crops on a farm at Norwood (29° 28'S, 149° 50′E) near Moree, NSW, from 28 Feb. to 21 Mar. 2012. The cotton used for the trial was at the early squaring stage, when it was attractive to green mirids (Khan et al. 2004).
as §2, with “mirids” for “mirids, green vegetable bugs”, “were evaluated:” for “was assessed:”, “of Fipronil;” for “fipronil;”
The treatment plots were arranged in a randomized complete block design with six replicates per treatment. Each replicated plot measured 40 m wide (40 rows) and 90 m long.
Foliar application of each treatment was made on 28 Feb. (for both green mirids and beneficial insects) and 13 Mar. […]
Pre-treatment counts of adult and nymph green mirids, predatory beetles, predatory bugs, predatory lacewings and spiders were made by visual inspection of whole cotton plants. Both adults and nymphs of beneficial insects were counted. Plants were assessed in randomly selected one-metre lengths of row of each treatment replicate (i.e. 6 m per treatment). […] Data are expressed as numbers of green mirid adults and nymphs counted per metre per treatment.

[2] = Foliar spray trial on Bollgard II cotton, Norwood 2010-11 (Example 7): yield; type: in vivo; conditions: BC 667/DAT 511 0.50 L/ha, fipronil 62.5 mL/ha
Procedure: The study evaluated the efficacy of the following treatments against green mirids, green vegetable bugs and predatory insects: • 1. 500 mL/ha BC 667 spore in oil (1×10^7 spores/ml); • 2. 500 mL/ha DAT 511 spore in oil (1×10^7 spores/ml); • 3. 62.5 mL/ha Fipronil (conventional insecticide); and • 4. Unsprayed (control).
The treatment plots were arranged in a randomized complete block design with four replicates per treatment. Each replicated plot measured 0.5 ha. Foliar application of each treatment was made on 18 Jan. 2011 using a ground spray rig fitted with flat fan nozzles to achieve a droplet size of 80 250 μm. The treatment was applied in the mornings when temperature was between 20° C. and 28° C. The timing of treatment was based on an economic threshold of 0.5 green mirids per metre, the IPM guideline and recommendation by CottonLogic.
Cotton in each treated plot was harvested separately using a four-row picker (John Deere, Model 9965, USA) at the end of the season and the average lint yields (bales/acre) were compared between treatments.

With `N#Cc1nn(-c2c(Cl)cc(C(F)(F)F)cc2Cl)c(N)c1[S+]([O-])C(F)(F)F` (stereo not shown) [fipronil] the “green vegetable bugs per metre on unsprayed plots relative to treated plots” value [1] was “significantly higher”, the “effect on number of predatory beetles per metre” value (predatory beetles) was “identical” and the “number of spiders versus unsprayed (control) plots” value (spiders) was “No significant difference”. For the same compound, the “Yields (bales/acre)” value [2] was 4.67 ± 0.63 a bales/acre.
